System: A498 complex spheroids with HUVEC/MSC, growth
Experiment: Anticancer human tumor A498 cell line growth inhibition [AhR];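 also: seven day exposure starting three days after spheroid seeding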;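 as to viability, T/C: luminescence signal used as a surrogate for viable cells; luminescence viability scaled so 100% equals DMSO vehicle wells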
Conditions: for IC50: curve of first compound; for viability, T/C: stronger effect = lower value
Excerpt: Multicellular complex tumor spheroid response to aryl hydrocarbon receptor antagonists in combination with a variety of drugs and investigational agents in selected tumor cell lines
The current study was undertaken to assess response to aryl hydrocarbon receptor antagonists in combination with standard-of-care drugs and investigational agents in solid tumor complex spheroid models. Complex spheroids include a stromal component modeled by human endothelial cells (HUVEC) and fibroblasts modeled by human mesenchymal stem cells (MSCs). The concentration ranges selected for each drug and investigational agent were based upon clinically achievable concentrations if the clinical Cmax of the agent was known.
Compounds. The drugs and investigational agents: BAY 2416964 (NSC825713), GNF351 (NSC835774), CH-223191 (NSC835775), CPI-455 (NSC825282), aza-TdCyd (NSC777586), decitabine (NSC127716), belinostat (NSC758774), entinostat (NSC756642), pevonedistat (NSC761192), tazemetostat (NSC777109), talazoparib (NSC765396), olaparib (NSC753686), selinexor (NSC780203), nedisertib (M3814, NSC802822), bortezomib (NSC756655), venetoclax (NSC766270), doxorubicin (NSC123127), elimusertib (BAY189344, NSC800525), ceralasertib (AZD6738, NSC777638), TAK-243 (NSC785004), alisertib (NSC759677), etoposide (NSC141540), topotecan (NSC609699), eribulin (NSC707389), gemcitabine (NSC613327), carboplatin (NSC241240), cisplatin (NSC119875), and SN-38 (NSC673596) were obtained from the National Cancer Institute (NCI) Developmental Therapeutics Program Chemical Repository (32). The FDA-approved anticancer drug set is available from the Developmental Therapeutics Program at https://dtp.cancer.gov/organization/dscb/obtaining/available plates.htm. […] The stock solutions were prepared in dimethyl sulfoxide (DMSO, Sigma-Aldrich, St. Louis, MO, cat. D2650), except for the platinum compounds which were prepared in saline (Quality Biological, Gaithersburg, MD, cat. 114-055-101), at 800-fold the tested concentration and stored at -70 degrees C prior to their use. All drugs and investigational agents were tested over a range starting from a high concentration at or near the clinical Cmax and decreasing in half-log increments. If the clinical Cmax for an agent had not been determined, the highest concentration tested was 10 microM (Table 1).
Cell Culture. All cells were maintained in an incubator at 37 degrees C and 5% CO2 with 95% humidity. The PDC lines were cultured according to standard operating procedures established by the NCI PDMR (https://pdmr.cancer.gov). Briefly, all PDCs were thawed and cultured in Matrigel-coated flasks prepared with a working solution of 1X Ham's F-12 nutrient mix, without supplementation (Invitrogen, Waltham, MA, cat. 11765054), 100 U/mL penicillin-streptomycin (Invitrogen, cat. 15140122), and 2.5% Matrigel (Corning Inc., Corning, NY, cat. 354248) for the first three passages. All PDCs were cultured in complete DMEM/F-12 media containing advanced DMEM/F-12 (Invitrogen, cat. 12634028), 4.9% defined fetal bovine serum, heat inactivated (HyClone Laboratories Inc., Logan, UT, cat. SH30070.03HI), 389 ng/mL hydrocortisone (Sigma-Aldrich, cat. H4001), 9.7 ng/mL human EGF recombinant protein (Invitrogen, cat. PHG0313), 23.4 microg/mL adenine (Sigma-Aldrich, cat. A2786), 97.3 U/mL penicillin-streptomycin (Invitrogen, cat. 15140122), 1.9 mM L-glutamine (Invitrogen, cat. 25030081), and 9.7 microM Y-27632 dihydrochloride (Tocris Bioscience, Bristol, United Kingdom, cat. 1254). The PDCs were cultured in complete DMEM/F12 media without 10 microM Y-27632 dihydrochloride for at least two passages prior to the screen. The established cell lines NCI-H1341 and […] were cultured in DMEM/F-12, HEPES (Invitrogen, cat. 11330032), 5% defined fetal bovine serum (HyClone Laboratories Inc., cat. SH30070.03), ITS premix universal culture supplement [insulin (5 microg/mL), transferrin (5 microg/mL), and selenious acid (5 ng/mL)] […]

SMILES: O=C(c1cc(Cc2n[nH]c(=O)c3ccccc23)ccc1F)N1CCN(C(=O)C2CC2)CC1 + CC(CO)NC(=O)c1cc(-c2ccc(Cl)cc2)nn(-c2cnn(C)c2)c1=O
- IC50 (second compound 0.1 µM): > 10000 nM
- IC50 (second compound 0.316 µM): > 10000 nM
- IC50 (second compound 1 µM): > 10000 nM
- IC50 (second compound 3.16 µM): > 10000 nM
- IC50 (second compound 10 µM): > 10000 nM
- viability, T/C (second compound 0.1 µM, first compound 0.0316 µM): 105%
- viability, T/C (second compound 0.1 µM, first compound 0.1 µM): 93.3%
- viability, T/C (second compound 0.1 µM, first compound 0.316 µM): 102%
- viability, T/C (second compound 0.1 µM, first compound 1 µM): 84.6%
- viability, T/C (second compound 0.1 µM, first compound 3.16 µM): 94.6%
- viability, T/C (second compound 0.1 µM, first compound 10 µM): 85.3%
- viability, T/C (second compound 0.316 µM, first compound 0.0316 µM): 97%
- viability, T/C (second compound 0.316 µM, first compound 0.1 µM): 106%
- viability, T/C (second compound 0.316 µM, first compound 0.316 µM): 99.9%
- viability, T/C (second compound 0.316 µM, first compound 1 µM): 81.2%
- viability, T/C (second compound 0.316 µM, first compound 3.16 µM): 87.4%
- viability, T/C (second compound 0.316 µM, first compound 10 µM): 81.7%
- viability, T/C (second compound 1 µM, first compound 0.0316 µM): 99%
- viability, T/C (second compound 1 µM, first compound 0.1 µM): 96.6%
- viability, T/C (second compound 1 µM, first compound 0.316 µM): 94.6%
- viability, T/C (second compound 1 µM, first compound 1 µM): 77.9%
- viability, T/C (second compound 1 µM, first compound 3.16 µM): 87.2%
- viability, T/C (second compound 1 µM, first compound 10 µM): 79.9%
- viability, T/C (second compound 3.16 µM, first compound 0.0316 µM): 91.3%
- viability, T/C (second compound 3.16 µM, first compound 0.1 µM): 81.7%
- viability, T/C (second compound 3.16 µM, first compound 0.316 µM): 83.5%
- viability, T/C (second compound 3.16 µM, first compound 1 µM): 77.2%
- viability, T/C (second compound 3.16 µM, first compound 3.16 µM): 79%
- viability, T/C (second compound 3.16 µM, first compound 10 µM): 70.3%
- viability, T/C (second compound 10 µM, first compound 0.0316 µM): 71.7%
- viability, T/C (second compound 10 µM, first compound 0.1 µM): 67.6%
- viability, T/C (second compound 10 µM, first compound 0.316 µM): 69.1%
- viability, T/C (second compound 10 µM, first compound 1 µM): 61.6%
- viability, T/C (second compound 10 µM, first compound 3.16 µM): 64.1%
- viability, T/C (second compound 10 µM, first compound 10 µM): 62%

SMILES: CC(C)CC(NC(=O)C(Cc1ccccc1)NC(=O)c1cnccn1)B(O)O (stereo not given) + CC(CO)NC(=O)c1cc(-c2ccc(Cl)cc2)nn(-c2cnn(C)c2)c1=O
- IC50 (second compound 0.1 µM): 2.95 nM
- IC50 (second compound 0.316 µM): 3.2 nM
- IC50 (second compound 1 µM): 2.67 nM
- IC50 (second compound 3.16 µM): 2.13 nM
- IC50 (second compound 10 µM): 1.57 nM
- viability, T/C (second compound 0.1 µM, first compound 0.000949 µM): 91.1%
- viability, T/C (second compound 0.1 µM, first compound 0.003 µM): 49.4%
- viability, T/C (second compound 0.1 µM, first compound 0.00949 µM): 3.71%
- viability, T/C (second compound 0.1 µM, first compound 0.03 µM): 0.58%
- viability, T/C (second compound 0.1 µM, first compound 0.0949 µM): 2.33%
- viability, T/C (second compound 0.1 µM, first compound 0.3 µM): 1.23%
- viability, T/C (second compound 0.316 µM, first compound 0.000949 µM): 90%
- viability, T/C (second compound 0.316 µM, first compound 0.003 µM): 52.6%
- viability, T/C (second compound 0.316 µM, first compound 0.00949 µM): 4.62%
- viability, T/C (second compound 0.316 µM, first compound 0.03 µM): 1.25%
- viability, T/C (second compound 0.316 µM, first compound 0.0949 µM): 0.46%
- viability, T/C (second compound 0.316 µM, first compound 0.3 µM): 1.14%
- viability, T/C (second compound 1 µM, first compound 0.000949 µM): 87.2%
- viability, T/C (second compound 1 µM, first compound 0.003 µM): 45.8%
- viability, T/C (second compound 1 µM, first compound 0.00949 µM): 4.69%
- viability, T/C (second compound 1 µM, first compound 0.03 µM): 1.75%
- viability, T/C (second compound 1 µM, first compound 0.0949 µM): 1.82%
- viability, T/C (second compound 1 µM, first compound 0.3 µM): 2.86%
- viability, T/C (second compound 3.16 µM, first compound 0.000949 µM): 79.4%
- viability, T/C (second compound 3.16 µM, first compound 0.003 µM): 37.6%
- viability, T/C (second compound 3.16 µM, first compound 0.00949 µM): 5.03%
- viability, T/C (second compound 3.16 µM, first compound 0.03 µM): 1.11%
- viability, T/C (second compound 3.16 µM, first compound 0.0949 µM): 3.08%
- viability, T/C (second compound 3.16 µM, first compound 0.3 µM): 0.24%
- viability, T/C (second compound 10 µM, first compound 0.000949 µM): 65.7%
- viability, T/C (second compound 10 µM, first compound 0.003 µM): 29.6%
- viability, T/C (second compound 10 µM, first compound 0.00949 µM): 4.31%
- viability, T/C (second compound 10 µM, first compound 0.03 µM): 0.81%
- viability, T/C (second compound 10 µM, first compound 0.0949 µM): 2.81%
- viability, T/C (second compound 10 µM, first compound 0.3 µM): 0.32%

— PubChem BioAssay AID1919007 (Molecular Pharmacology Branch, DTP, NCI, 2023)
